# Read-outs that look alike come from different tables or passages of the source.
# How the values were obtained:
# [1] = tested on: LPS-induced ALI model in rats; assay: Total protein content in BALF (BCA assay) of ALI rats; assay type: in vivo, rat; details: 6 h after administration
# Procedure: (§1) Male SD rats were acclimatized for one week, and an ALI model in rats was established using tracheal instillation of LPS. The specific modeling steps were as follows: the rats were first anesthetized with isoflurane, then the rats were fixed in a supine position to facilitate intratracheal administration to the lungs. LPS (8 mg/kg) was nebulized into the alveoli using a microsprayer. The microsprayer was then removed, the animal was placed in a vertical position, and gently rotated for 30 seconds to ensure even distribution of LPS throughout the lungs.
# (§2) Referring to relevant literature on synephrine, the maximum human dose of synephrine is 100 mg. Based on the clinically equivalent dose, the dose administered to the rats via gavage was 9 mg/kg, and the low-dose inhalation group was 4.5 mg/kg.
# After blood collection, the rats were placed in a supine position on the operating table until their hearts stopped beating. […]
# This study used the bicinchoninic acid (BCA) assay to determine the total protein content in BALF. The tissue weight was accurately measured, and physiological saline was added according to the weight-to-volume ratio. […] The test solution was added sequentially according to the protein quantification kit instructions. The absorbance was measured at 562 nm using a microplate reader, and the protein concentration in BALF was calculated.
# [2] = tested on: LPS-induced ALI model in rats; assay: HE and Masson staining of lung tissue in LPS-induced rat ALI model; assay type: in vivo
# Procedure: as §1, §2
# Lung tissue fixed in 4% paraformaldehyde was dehydrated, routinely embedded in paraffin, and prepared into 5 μm sections. After dewaxing, the sections were routinely stained with HE, dehydrated, mounted, and observed under a microscope to examine the structure and morphological characteristics of the rat lung tissue in each group.
# The sections were routinely dewaxed to water. Hydrophobic zones were drawn, and Bouin's solution was added dropwise. The sections were then covered and incubated at 37° C. After incubation, they were rinsed with running water until the yellow color disappeared. […]
# [3] = tested on: LPS-induced ALI model in rats; assay: Serum inflammatory cytokine levels (ELISA) in LPS-induced rat ALI model; assay type: in vivo; details: P<0.0001; 6 h after administration
# Procedure: as §1, §2
# Six hours after drug administration, rats were anesthetized by intraperitoneal injection of sodium pentobarbital. […]
# Rat serum was collected, and the levels of TNF-α, IL-6, IL-8, IL-1β, and IL-1α were measured separately according to the rat ELISA kit instructions. The OD value was measured at 450 nm using a microplate reader. A standard curve was plotted with the concentrations of TNF-α, IL-8, IL-6, IL-1β, and IL-1α standards on the x-axis and the absorbance values on the y-axis. The concentrations of TNF-α, IL-6, IL-8, IL-1β, and IL-1α in serum were calculated based on the standard curve.
# [4] = In vitro pulmonary deposition, next-generation pharmaceutical impactor (NGI); assay type: physicochemical; details: 75 L/min, 3.2 s, 10 mg capsules
# From the text: The in vitro pulmonary deposition of synephrine DPI samples was investigated using the next-generation pharmaceutical impactor (NGI). The various components of the instrument were connected sequentially, including the NGI device, an adapter, an artificial throat, a pre-separator, and a collection tray. After installation, the airtightness and uniformity of the device were checked. The gas flow rate was 75 L/min. At this gas flow rate, the cutoff values Da of each stage of the collection tray were as follows: S1=7.145 μm, S2=3.971 μm, S3=2.522 μm, S4=1.495 μm, S5=0.835 μm, S6=0.481 μm, S7=0.293 μm, and the micro-orifice collector (MOC)=0.104 μm.
# The specific method was as follows: 10 mg synephrine micropowder and API were added to No. 3 hydroxypropyl methylcellulose capsules, respectively, and then loaded into a single-capsule inhalation device. After connecting to an NGI, the measurement was performed. Five capsules were inhaled each time. The inhalation flow rate was 75 L/min, and the inhalation duration was 3.2 s. Drug powder deposited at each stage of the NGI was collected using ultrapure water. The synephrine content was determined under UV conditions, and the FPF and respirable fraction (RF) were calculated.
# [5] = tested on: LPS-induced ALI model in rats; assay: Lung wet-to-dry weight ratio in LPS-induced rat ALI model; assay type: in vivo; details: SYN 9 mg/kg gavage; SYN-DPI 4.5-18 mg/kg inhalation; 6 h after administration
# Procedure: as §1, §2
# After instillation of the left lung of the rats, the left and right lungs were collected, washed with physiological saline, and dried. The lower lobe of the left lung was used to determine the wet-to-dry weight ratio of the rat lung tissue. […]
# The lower lobe of the left lung of the rat was collected, surface blood was removed, surface moisture was wiped off, and the lobe was weighed. The wet weight was recorded. The lobe was then dried in a 60° C. oven for 24 hours, and the dry weight was recorded. The degree of pulmonary edema was evaluated by calculating the lung wet/dry weight ratio. […]
# [6] = Hygroscopicity by dynamic vapor sorption (DVS); assay type: physicochemical
# Procedure: The hygroscopicity of synephrine API and DPI was analyzed using a dynamic vapor sorption (DVS) analyzer. The experimental temperature was set to room temperature (25° C.), the carrier gas was nitrogen, and the total gas flow rate was 200 mL/min. Samples were weighed and placed on the balance tray of the DVS analyzer. The relative humidity (RH) change program was set as required, and the humidity equilibrium time was also set.
# [7] = Solubility of synephrine API in different solvents by HPLC; assay type: physicochemical
# Procedure: Column: Agilent C18 (250 mm×4.6 mm, 5 μm) column; mobile phase: 0.1% formic acid (A)-acetonitrile (B); detection wavelength: 273 nm; flow rate: 1 mL/min; column temperature: 30° C.; injection volume: 10 μL; isocratic elution: 1 min to 10 min; 97% A.
# Excess synephrine API was weighed and placed in an EP tube. Then, 1.00 mL of each of the following solutions was added: water, anhydrous ethanol, isopropanol, ethyl acetate, n-butanol, n-octanol, acetonitrile, and n-hexane. The mixture was sonicated (300 W, 40 kHz) until no further dissolution occurred. The tube was then centrifuged at 6000 r min^−1 for 15 min, filtered through a 0.22 μm microporous membrane, and the filtrate was diluted with methanol and analyzed under liquid chromatography conditions. The solubility of synephrine in different solvents was calculated.
# [8] = Pharmacokinetic study in rats, plasma synephrine by LC-MS/MS; assay type: in vivo, rat; details: for Cmax: rat plasma
# Procedure: SPF-grade male SD rats, weighing 180-220 g, were housed under identical experimental conditions: temperature (22±1)° C., relative humidity (55±5) %, and a 12-hour light/dark cycle. They had free access to food and water and underwent a one-week acclimatization period before the experiment.
# Column: Hypersil GOLD C8 (100 mm×2.1 mm; 3 μm); Mobile phase: Phase A: 0.1% formic acid aqueous solution, Phase B: acetonitrile; Flow rate: 0.3 mL/min; Column temperature: 40° C.; Injection volume: 2 μL; Gradient elution program: 0-1 min, 5% B; 1-4 min, 5%-90% B; 4-5 min, 90%-5% B.
# Mass spectrometry was performed in electrospray ionization (ESI) positive ion scanning mode, using multiple reaction monitoring (MRM) detection mode. The collision gas was high-purity nitrogen; capillary voltage: 3.5 kV; nebulizer pressure: 45 psi; desiccator temperature: 300° C.; drying gas flow rate: 5 L/min (N2); sheath gas temperature: 250° C.; sheath gas flow rate: 11 L/min (N2).
# Experimental animals were randomly divided into three groups: (1) tail vein injection group, (2) pulmonary inhalation group, and (3) gavage group, with 5 animals in each group. Animals were fasted for 12 h before administration but had free access to water.
# Rats were fasted for 12 hours before the experiment but were allowed free access to water. The rats were weighed to calculate the dosage and numbered. After administration, 0.2 mL of blood was collected from the orbital vein at time points of 2 min, 5 min, 10 min, 15 min, 30 min, 1 h, 2 h, 3 h, 4 h, and 6 h. The blood samples were placed in an EP tube containing heparin sodium and were centrifuged at 3500 rpm for 15 min. The supernatant plasma was separated and stored at −80° C. freezer.
# 190 μL of a rat plasma sample was accurately pipetted into an EP tube. Then, 10 μL of an internal standard solution was added, and the sample was vortexed for 60 s. Next, 400 μL of acetonitrile was added, and the sample was vortexed for 60 s to precipitate proteins. The sample was then centrifuged at 10000 rpm for 15 mins, and the supernatant was passed through a 0.22 μm microporous filter membrane. Finally, the filtered sample was placed in a glass insert for LC-MS/MS analysis.
# [9] = tested on: LPS-induced RAW264.7 cells; assay: LPS-induced RAW264.7 cellular inflammation model, ELISA of inflammatory mediators; assay type: cell-based; details: Mus musculus, LPS-stimulated RAW264.7
# Procedure: RAW264.7 cells in logarithmic growth phase were seeded at 100 μL per well in a 96-well plate and cultured at 37° C. and 5% CO2 for 24 hours. The supernatant was aspirated and discarded. 100 μL of medium containing synephrine at an appropriate concentration was added to each well for pretreatment for 1 h, followed by the addition of LPS-containing medium. The cells were then co-incubated with the test substance for 24 hours.
# Based on the CCK-8 assay results, RAW264.7 cells in logarithmic growth phase were seeded in 96-well plates and divided into the control group, LPS group, LPS+SYN group, and LPS+SYN-DPI group. A cellular inflammation model was established. After culturing for 24 h, the supernatant from each well was collected and centrifuged at 3500 rpm for 10 min. The supernatant was collected and the subsequent procedures were strictly performed according to the ELISA kit instructions. The absorbance was measured at 450 nm using a microplate reader, and the contents of interleukin (IL)-1B, IL-6, tumor necrosis factor (TNF)-α, and nitric oxide (NO) were calculated.
structure (smiles),measurement,setting,value
C[C@@H]1C[C@H]2[C@@H]3CCC4=CC(=O)C=C[C@]4(C)[C@@]3(F)[C@@H](O)C[C@]2(C)[C@@]1(O)C(=O)CO [Dex],total protein content in BALF compared with the LPS group,[1],significantly improve alveolar interstitial space
same,"pathological damage of rat lung tissue (HE, Masson)","[2]; Dex group, 3 mg/kg gavage",significantly alleviated
same,"expression levels of serum inflammatory cytokines (IL-1α, IL-1β, IL-6, IL-8, TNF-α) compared to the model group",[3],significantly decreased
"CNCC(O)c1ccc(O)cc1 (stereo not drawn) [SYN, Synephrine]",effective in vitro lung deposition rate,[4],2.25%
same,emptying rate,[4],90.98%
same,fine particle fraction (FPF),[4],2.69%
same,respirable fraction (RF),[4],41.26%
same,wet-to-dry weight ratio of rat lungs compared to the model group,[5],significant reduction
same,"pathological changes, SYN group compared with low-dose SYN-DPI group",[2]; SYN 9 mg/kg gavage vs SYN-DPI 4.5 mg/kg inhalation,no significant difference in pathological changes
same,"hygroscopicity class (Chinese Pharmacopoeia 2020, 9103 guidelines)",[6]; 90% RH,no or almost no hygroscopicity (hygroscopic weight gain less than 0.2%)
same,maximum moisture adsorption / moisture absorption weight gain,"[6]; 90% RH, 25° C.",0.12%
same,moisture absorption weight gain percentage,"[6]; normal storage conditions (60% RH), 25° C.",less than 0.2%
same,solubility,"[7]; organic solvent or mixture, solvent: Acetonitrile",10620 ± 60 µg/mL
same,solubility,"[7]; organic solvent or mixture, solvent: Anhydrous Ethanol",17200 ± 270 µg/mL
same,solubility,"[7]; organic solvent or mixture, solvent: Ethyl Acetate",640 ± 10 µg/mL
same,solubility,"[7]; organic solvent or mixture, solvent: Isopropanol",7060 ± 120 µg/mL
same,solubility,"[7]; organic solvent or mixture, solvent: n-Butanol",8760 ± 20 µg/mL
same,solubility,"[7]; organic solvent or mixture, solvent: n-Octanol",3660 ± 10 µg/mL
same,solubility,[7]; solvent: Water,13440 ± 20 µg/mL
same,Solubility (in words),[7]; solvent: n-hexane,almost insoluble
same,"expression levels of serum inflammatory cytokines (IL-1α, IL-1β, IL-6, IL-8, TNF-α) compared to the model group",[3],significantly decreased
same,Cmax,"[8]; iv, injection group (tail vein)",1030 ng/mL
same,AUC(0-inf),"[8]; plasma, iv, rat, injection group (tail vein)",1540 ng·h/mL
same,half-life,"[8]; plasma, iv, rat, injection group (tail vein), read-out: half-life (t½)",5.33 h
same,bioavailability,"[8]; plasma, po, rat, gavage group, read-out: AUC(0-∞) as % of the injection group",64.5%
same,AUC(0-t),"[8]; plasma, po, rat, gavage group, read-out: area-under-the-curve (AUC)(0-t)",876 ng·h/mL
same,half-life,"[8]; plasma, po, rat, gavage group, read-out: half-life t½",2.29 h
same,Cmax,"[8]; po, gavage group",302 ng/mL
same,Cmax as % of the injection group,"[8]; rat, gavage group",29.24%
same,half-life (t½) as % of the injection group,"[8]; rat, gavage group",43.01%
same,inhibition at 200 µM,"[9]; 200 μM, read-out: inhibition of NO production",16.1%
same,inhibition at 400 µM,"[9]; 400 μM, read-out: inhibition rate of IL-6 production",23.3%

# Source: patent US20260283959A1, “APPLICATION OF […] POWDER INHALER IN PREPARATION OF MEDICAMENT FOR TREATING ACUTE LUNG INJURY” (Anhui University of Chinese Medicine, priority 2025, published 2026)
